15 compounds from US12673041B2, “4-aminobut-2-enamide derivatives and salt thereof” (TAIHO PHARMACEUTICAL CO., LTD., priority 2019, dated 2026) can be followed below.

Assay [1] deals with Gppcp-bound recombinant K-Ras4B G12C mutant protein (amino acids 1-169, C51S/C80L/C118S) (Homo sapiens, UniProt P01116, C118S/C51S/C80L/G12C). Nature of the assay: KRASG12C binding assay (LC-MS compound binding rate). Particulars: test compound final concentration 0.5 μM, 25° C., 1 hour. The procedure, abridged:
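Gppcp-bound K-Ras4B G12C (aa 1-169, C51S/C80L/C118S) at 50 nM in 1×TBS, 0.1 mM TCEP, 0.25 mM MgCl2, 50 μM Gppcp was incubated 1 hour at 25° C with compound at 0.5 μM final. Intact-protein LC-MS gave binding rate as single-adduct signal over total KRAS signal, graded A (≥80%) to E (<20%).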

Assay [2] deals with T1, GMPPNP-bound KRAS G12C protein and cRAF RAS-binding domain (cRAF-RBD) (Homo sapiens, UniProt P01116, G12C).
T1 construct: made in house; host or cells: E. coli
Nature of the assay: Inhibitory activity on interaction between KRAS G12C and cRAF (Alpha technology). The format is biochemical. To be noted: GMPPNP-bound KRAS G12C incubated with compound at 25° C. for 1 hour, then cRAF-RBD, Alpha signal; read-out: IC50. The gist of the method:
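GMPPNP-loaded His-KRAS G12C (aa 1-169) preincubated 1 h at 25 °C with compound (pH 7.5 Tris, 1 mM MgCl2, TCEP, Tween 20), then cRAF-RBD (aa 50-132) and Alpha reagents added for 1.5 h at RT. Inhibition scaled between DMSO (0%) and GDP-bound KRAS (100%); IC50 by curve fitting.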

A further assay deals with MIA PaCa-2 cells. Nature of the assay: Growth inhibition activity on KRAS-G12C mutant cell line (MIA PaCa-2). The format is cell-based. To be noted: Homo sapiens, 72 h; MIA PaCa-2, 3-day culture, CellTiter-Glo 3D. The protocol: MIA PaCa-2 cells (given by Sumitomo Dainippon Pharma Co., Ltd.), which are a KRAS-G12C mutant human pancreas cancer cell line, were suspended in a 10% fetal bovine serum-containing RPMI1640 medium (manufactured by Fujifilm Wako Pure Chemical Corporation.). The cell suspension was seeded into each well of a 384-well U bottom microplate and cultured in an incubator containing 5% CO2 gas at 37° C. for 1 day. The compounds obtained in the “Preparation of Compounds” section were used as test compounds and were dissolved in DMSO, respectively, and each test compound was diluted with DMSO to give a concentration 500 times the final concentration. The resultant solution of the test compound in DMSO was diluted with the medium used for suspending cells and added to each well of the cell-culture plate to give a DMSO final concentration of 0.2%, followed by culture in an incubator containing 5% CO2 gas at 37° C. for another 3 days. The cell count after 3-day culture in the presence of the test compound was measured using CellTiter-Glo 3D Reagent (manufactured by Promega Corporation). All wells were added with CellTiter-Glo 3D Reagent and mixed for 10 minutes. 30 minutes after mixing, luminescence was measured by a plate reader. The growth inhibition rate was calculated from the following equation, and the concentration of the test compound at which 50% inhibition was achieved (IC50 (nM)) was determined. […] Growth Inhibition Rate (%)=(C−T)/(C)×100 • T: the emission intensity in a well into which a test compound was added. • C: the emission intensity in a well into which a test compound was not added.
Background: In ATP-based viability assays light output follows the ATP content of the culture.

The term IC50 denotes the concentration that gives 50% inhibition. `Cc1cc2c(cc1-c1cccn3c(C(=O)c4ccc(NC(=O)/C=C/CNC(C)(C)C)c(C#N)c4)ccc13)ncn2C` [Example 5, (E)-4-(tert-butylamino)-N-(2-cyano-4-(8-(1,6-dimethyl-1H-benzo[d]imidazol-5-yl)indolizine-3-carbonyl)phenyl)but-2-enamide]: the binding rate result in assay [1] is given as “A (A binding rate of 80% or more is rated “A”)”. Besides, the IC50 in assay [2] was 29 nM; in the assay on MIA PaCa-2 cells, 80 nM.

For `CO[C@H]1CC[C@H](NC/C=C/C(=O)Nc2ccc(C(=O)c3ccc4c(-c5c(C)cc6c(ncn6C)c5Cl)cccn34)cc2C#N)CC1` [Example 60, (E)-N-(4-(8-(4-chloro-1,6-dimethyl-1H-benzo[d]imidazol-5-yl)indolizine-3-carbonyl)-2-cyanophenyl)-4-(((1r,4r)-4-methoxycyclohexyl)amino)but-2-enamide], in assay [1], the binding rate entry is “A (A binding rate of 80% or more is rated “A”)”. For the same compound, the values for the IC50 (in assay [2]; in the assay with MIA PaCa-2 cells) were 20 nM and 59 nM, respectively.

With `CO[C@H]1CC[C@H](NC/C=C/C(=O)Nc2ccc(C(=O)c3ccc4c(-c5c(C)cc6c(ncn6C)c5C(C)C)cccn34)cc2C#N)CC1` [Example 64, (E)-N-(2-cyano-4-(8-(4-isopropyl-1,6-dimethyl-1H-benzo[d]imidazol-5-yl)indolizine-3-carbonyl)phenyl)-4-(((1r,4r)-4-methoxycyclohexyl)amino)but-2-enamide], in assay [1], the binding rate result is “A (A binding rate of 80% or more is rated “A”)”. For the same compound, the IC50 in assay [2] came to 82 nM; in the assay with MIA PaCa-2 cells, 69 nM.

Consider `CO[C@H]1CC[C@H](NC/C=C/C(=O)Nc2ccc(C(=O)c3cnc4c(-c5cc6ncn(C)c6cc5C)cccn34)cc2C#N)CC1` [Example 9, (E)-N-(2-cyano-4-(8-(1,6-dimethyl-1H-benzo[d]imidazol-5-yl)imidazo[1,2-a]pyridine-3-carbonyl)phenyl)-4-(((1r,4r)-4-methoxycyclohexyl)amino)but-2-enamide], for which the binding rate result in assay [1] was “B (a binding rate of 60% or more and less than 80% is rated “B”)”. Moreover, the figures for the IC50 (in assay [2]; in the assay on MIA PaCa-2 cells) were 66 nM and 100 nM, respectively.

Take `CO[C@H]1CC[C@H](NC/C=C/C(=O)Nc2ccc(C(=O)Nc3cccc(-c4cc5nc6n(c5cc4C(F)(F)F)CCC6)n3)cc2C#N)CC1` [Example 34, 3-cyano-4-((E)-4-(((1r,4r)-4-methoxycyclohexyl)amino)but-2-enamido)-N-(6-(7-(trifluoromethyl)-2,3-dihydro-1H-benzo[d]pyrrolo[1,2-a]imidazol-6-yl)pyridin-2-yl)benzamide]: the binding rate entry in assay [1] was “A (A binding rate of 80% or more is rated “A”)”. The IC50 was 31 nM in assay [2] and 92 nM in the assay on MIA PaCa-2 cells.

On to `Cc1cc2c(ncn2C)c(Cl)c1-c1cccn2c(C(=O)c3ccc(NC(=O)/C=C/CNC(C)(C)C)c(C#N)c3)ccc12` [Example 59, (E)-4-(tert-butylamino)-N-(4-(8-(4-chloro-1,6-dimethyl-1H-benzo[d]imidazol-5-yl)indolizine-3-carbonyl)-2-cyanophenyl)but-2-enamide], for which, in assay [1], the binding rate result was “A (A binding rate of 80% or more is rated “A”)”. Moreover, the IC50 came out at 19 nM in assay [2] and 64 nM in the assay with MIA PaCa-2 cells.

With `CO[C@H]1CC[C@H](NC/C=C/C(=O)Nc2ccc(C(=O)c3c[nH]c4c(-c5cc6ncn(C)c6cc5C(F)(F)F)cccc34)cc2C#N)CC1` [Example 8, (E)-N-(2-cyano-4-(7-(1-methyl-6-(trifluoromethyl)-1H-benzo[d]imidazol-5-yl)-1H-indole-3-carbonyl)phenyl)-4-(((1r,4r)-4-methoxycyclohexyl)amino)but-2-enamide], in assay [1], the binding rate result is recorded as “A (A binding rate of 80% or more is rated “A”)”. The IC50 in assay [2] amounted to 19 nM; with MIA PaCa-2 cells, 52 nM.

Turning to `CO[C@H]1CC[C@H](NC/C=C/C(=O)Nc2ccc(C(=O)c3c[nH]c4c(-c5cc6nc7n(c6cc5C(F)(F)F)CCC7)cccc34)cc2C#N)CC1` [Example 35, (E)-N-(2-cyano-4-(7-(7-(trifluoromethyl)-2,3-dihydro-1H-benzo[d]pyrrolo[1,2-a]imidazol-6-yl)-1H-indole-3-carbonyl)phenyl)-4-(((1r,4r)-4-methoxycyclohexyl)amino)but-2-enamide], the binding rate result in assay [1] was “A (A binding rate of 80% or more is rated “A”)”. The results for the IC50 (in assay [2]; in the assay with MIA PaCa-2 cells) were 19 nM and 39 nM, respectively.

For the compound `CO[C@H]1CC[C@H](NC/C=C/C(=O)Nc2ccc(C(=O)c3ncc4c(-c5cc6ncn(C)c6cc5C)cccn34)cc2C#N)CC1` [Example 57, (E)-N-(2-cyano-4-(8-(1,6-dimethyl-1H-benzo[d]imidazol-5-yl)imidazo[1,5-a]pyridine-3-carbonyl)phenyl)-4-(((1r,4r)-4-methoxycyclohexyl)amino)but-2-enamide], the binding rate result in assay [1] is “C (a binding rate of 40% or more and less than 60% is rated “C”)”. For the same compound, in assay [2], the IC50 is 160 nM.

On to `O=C(/C=C/CN[C@H]1CC[C@H](O)CC1)Nc1ccc(C(=O)Nc2cccc(-c3cc4nc[nH]c4cc3Cl)c2)cn1` [Example 14, N-(3-(6-chloro-1H-benzo[d]imidazol-5-yl)phenyl)-6-((E)-4-(((1r,4r)-4-hydroxycyclohexyl)amino)but-2-enamido)nicotinamide], for which the binding rate entry in assay [1] was “D (a binding rate of 20% or more and less than 40% is rated “D”)”. Moreover, in assay [2], the IC50 was 830 nM.

Consider `COCc1nc2cc(-c3cccc(NC(=O)c4ccc(NC(=O)/C=C/CNC5CC6C(C5)C6(F)F)c(C#N)c4)c3)c(C(F)(F)F)cc2n1C` (centres unmarked) [Example 25, (E)-3-cyano-4-(4-((6,6-difluorobicyclo[3.1.0]hexan-3-yl)amino)but-2-enamido)-N-(3-(2-(methoxymethyl)-1-methyl-6-(trifluoromethyl)-1H-benzo[d]imidazol-5-yl)phenyl)benzamide], for which the binding rate result in assay [1] is “A (A binding rate of 80% or more is rated “A”)”. The IC50 in assay [2] amounted to 250 nM.

Turning to `CO[C@H]1CC[C@H](NC/C=C/C(=O)Nc2ccc(C(=O)c3ccc4c(-c5c(Cl)cc6c(ncn6C)c5Cl)cccn34)cc2C#N)CC1` (single isomer, unassigned) [Example 63, (E)-N-(2-cyano-4-(8-(4,6-dichloro-1-methyl-1H-benzo[d]imidazol-5-yl)indolizine-3-carbonyl)phenyl)-4-(((1r,4r)-4-methoxycyclohexyl)amino)but-2-enamide], the binding rate entry in assay [1] is “A (A binding rate of 80% or more is rated “A”)”. Also, the IC50 in assay [2] amounted to 210 nM.

`COCc1nc2cc(-c3cccc(NC(=O)c4ccc(NC(=O)/C=C/CNC5C[C@H]6CC[C@@H](C5)O6)c(C#N)c4)c3)c(C(F)(F)F)cc2n1C` (stereo partly drawn) [Example 22, 4-((E)-4-(((1R,5S)-8-oxabicyclo[3.2.1]octan-3-yl)amino)but-2-enamido)-3-cyano-N-(3-(2-(methoxymethyl)-1-methyl-6-(trifluoromethyl)-1H-benzo[d]imidazol-5-yl)phenyl)benzamide]: the binding rate result in assay [1] is on record as “A (A binding rate of 80% or more is rated “A”)”. Further, in assay [2], the IC50 is 140 nM.

For `COc1cccc(F)c1-c1cccn2c(C(=O)c3ccc(NC(=O)/C=C/CN[C@H]4CC[C@H](OC)CC4)c(C#N)c3)ccc12` [Example 43, (E)-N-(2-cyano-4-(8-(2-fluoro-6-methoxyphenyl)indolizine-3-carbonyl)phenyl)-4-(((1r,4r)-4-methoxycyclohexyl)amino)but-2-enamide], the binding rate entry in assay [1] is recorded as “A (A binding rate of 80% or more is rated “A”)”. The IC50 in assay [2] is 170 nM.

In the case of `CS(=O)(=O)N1CCC(NC/C=C/C(=O)Nc2ccc(C(=O)Nc3cccc(-c4cc5nccn5cc4Cl)c3)cc2C#N)CC1` [Example 17, (E)-N-(3-(6-chloroimidazo[1,2-a]pyridin-7-yl)phenyl)-3-cyano-4-(4-((1-(methylsulfonyl)piperidin-4-yl)amino)but-2-enamido)benzamide], in assay [1], the binding rate result is “B (a binding rate of 60% or more and less than 80% is rated “B”)”. Moreover, in assay [2], the IC50 came out at 75 nM.
